According to ChEMBL document CHEMBL1157519, “Cytotoxic acylated triterpene saponins from the husks of Xanthoceras sorbifolia” (J Nat Prod, 2008):

What follows are molecules tested on OVCAR-3 (assay: Growth inhibition of human OVCAR-3 cells by MTT assay).
Type: functional, cell-based
With `C/C=C(/C)C(=O)O[C@H]1[C@H](OC(=O)/C(C)=C\C)[C@]2(CO)[C@H](O)C[C@]3(C)C(=CC[C@@H]4[C@@]5(C)CC[C@H](O[C@@H]6O[C@H](C(=O)O)[C@@H](O)[C@H](O[C@@H]7O[C@@H](CO)[C@H](O)[C@H]7O)[C@H]6O[C@@H]6O[C@H](CO)[C@H](O)[C@H](O)[C@H]6O)[C@@H](C)[C@@H]5CC[C@]43C)[C@@H]2CC1(C)C` the IC50 was 4.8 µM.
`C/C=C(/C)C(=O)O[C@H]1[C@H](OC(=O)C(C)C)[C@]2(CO)[C@H](O)[C@H](O)[C@]3(C)C(=CC[C@@H]4[C@@]5(C)CC[C@H](O[C@@H]6O[C@H](C(=O)O)[C@@H](O)[C@H](O[C@@H]7O[C@@H](CO)[C@H](O)[C@H]7O)[C@H]6O[C@@H]6O[C@H](CO)[C@H](O)[C@H](O)[C@H]6O)[C@@H](C)[C@@H]5CC[C@]43C)[C@@H]2CC1(C)C` showed an IC50 of 4.2 µM.
`C/C=C(/C)C(=O)O[C@H]1[C@H](O)[C@]2(COC(=O)C(C)CC)[C@H](O)[C@H](O)[C@]3(C)C(=CC[C@@H]4[C@@]5(C)CC[C@H](O[C@@H]6O[C@H](C(=O)O)[C@@H](O)[C@H](O[C@@H]7O[C@@H](CO)[C@H](O)[C@H]7O)[C@H]6O[C@@H]6O[C@H](CO)[C@@H](O)[C@H](O)[C@H]6O)[C@@H](C)[C@@H]5CC[C@]43C)[C@@H]2CC1(C)C` (some centres undefined) showed an IC50 of 13.1 µM.
Work on `C/C=C(/C)C(=O)O[C@H]1[C@H](OC(=O)/C(C)=C\C)[C@]2(CO)[C@H](O)[C@H](O)[C@]3(C)C(=CC[C@@H]4[C@@]5(C)CC[C@H](O[C@@H]6O[C@H](C(=O)O)[C@@H](O)[C@H](O[C@@H]7O[C@@H](CO)[C@H](O)[C@H]7O)[C@H]6O[C@@H]6O[C@H](CO)[C@H](O)[C@H](O)[C@H]6O)[C@@H](C)[C@@H]5CC[C@]43C)[C@@H]2CC1(C)C` yielded an IC50 of 4 µM.
